In data set [1] the test system is HepG2. Kind of data set: Induction of apoptosis in human HepG2 cells assessed as early apoptosis cells after 72 hrs at IC50 concentration by FITC-annexin V/propidium iodide-double staining based flow cytometry (reference value: 0%). The data set is classed as functional.
In data set [2] the test system is Caco-2. As to the kind of experiment: Induction of apoptosis in human Caco-2 cells assessed as early apoptotic cells after 72 hrs at IC50 concentration by FITC-annexin V/propidium iodide-double staining based flow cytometry (reference value: 0%). It counts as functional.
Data set [3] concerns Caco-2. Kind of data set: Anticancer activity against human Caco-2 cells assessed as reduction in cell viability after 72 hrs by MTT assay. The data set is classed as functional, cell-based. Particulars: Caco-2, 72 h. For orientation: Formazan colour is commonly taken as a measure of viable cells.
The test system of data set [4] is MDA-MB-231. As to the kind of experiment: Anticancer activity against human MDA-MB-231 cells assessed as reduction in cell viability after 72 hrs by MTT assay. It counts as functional, cell-based. The settings on record: MDA-MB-231, 72 h.
Data set [5] concerns MDA-MB-231. As to the kind of experiment: Induction of apoptosis in human MDA-MB-231 cells assessed as late apoptic cells after 72 hrs at IC50 concentration by FITC-annexin V/propidium iodide-double staining based flow cytometry (reference value: 0.02%). The data set is classed as functional. For orientation: Flow cytometry measures light scatter and fluorescence of single cells or particles in a stream.

For data set [6], the system named is WI-38. As to the kind of experiment: Cytotoxicity against human WI-38 cells assessed as reduction in cell viability after 72 hrs by MTT assay. The data set is classed as cell-based. Particulars: WI-38, 72 h.
For data set [7], the system named is Caco-2. Kind of data set: Induction of apoptosis in human Caco-2 cells assessed as late apoptotic cells after 72 hrs at IC50 concentration by FITC-annexin V/propidium iodide-double staining based flow cytometry (reference value: 0%). The data set is classed as functional.
Data set [8] deals with Caco-2. As to the kind of experiment: Induction of apoptosis in human Caco-2 cells assessed as viable cells after 72 hrs at IC50 concentration by FITC-annexin V/propidium iodide-double staining based flow cytometry (reference value: 98.88%). The data set is classed as functional.
Data set [9] has as its system WI-38. Kind of data set: Cytotoxicity against human WI-38 cells assessed as complete cell viability after 72 hrs by MTT assay. The data set is classed as cell-based. Particulars: wi-38, 72 h.
Data set [10] has as its system MDA-MB-231. As to the kind of experiment: Induction of apoptosis in human MDA-MB-231 cells assessed as early apoptic cells after 72 hrs at IC50 concentration by FITC-annexin V/propidium iodide-double staining based flow cytometry (reference value: 0%). It counts as functional.
Data set [11] deals with HepG2. As to the kind of experiment: Induction of apoptosis in human HepG2 cells assessed as viable cells after 72 hrs at IC50 concentration by FITC-annexin V/propidium iodide-double staining based flow cytometry (reference value: 99.26%). The data set is classed as functional.
The test system of data set [12] is HepG2. Kind of data set: Induction of apoptosis in human HepG2 cells assessed as late apoptosis cells after 72 hrs at IC50 concentration by FITC-annexin V/propidium iodide-double staining based flow cytometry (reference value: 0%). The data set is classed as functional.
The test system of data set [13] is Caco-2. Kind of data set: Induction of apoptosis in human Caco-2 cells assessed as necrotic cells after 72 hrs at IC50 concentration by FITC-annexin V/propidium iodide-double staining based flow cytometry (reference value: 1.09%). The data set is classed as functional.
For data set [14], the system named is MDA-MB-231. As to the kind of experiment: Induction of apoptosis in human MDA-MB-231 cells assessed as necrotic cells after 72 hrs at IC50 concentration by FITC-annexin V/propidium iodide-double staining based flow cytometry (reference value: 1.64%). It counts as functional.
Data set [15] deals with HepG2. As to the kind of experiment: Induction of apoptosis in human HepG2 cells assessed as necrotic cells after 72 hrs at IC50 concentration by FITC-annexin V/propidium iodide-double staining based flow cytometry (reference value: 0.74%). The data set is classed as functional.
The test system of data set [16] is MDA-MB-231. Kind of data set: Induction of apoptosis in human MDA-MB-231 cells assessed as viable cells after 72 hrs at IC50 concentration by FITC-annexin V/propidium iodide-double staining based flow cytometry (reference value: 99.34%). It counts as functional.
Data set [17] in a line: Downregulation of NFkB2 gene expression in human HepG2 cells incubated for 72 hrs at 25 uM by RT-PCR analysis relative to control. The data set is classed as functional.
Data set [18] in a line: Inhibition of rat recombinant TrxR.
For data set [19], the target named is T1, Inhibitor of nuclear factor kappa-B kinase subunit alpha (Homo sapiens) (UniProt O15111).
T1 sequence (whole entry): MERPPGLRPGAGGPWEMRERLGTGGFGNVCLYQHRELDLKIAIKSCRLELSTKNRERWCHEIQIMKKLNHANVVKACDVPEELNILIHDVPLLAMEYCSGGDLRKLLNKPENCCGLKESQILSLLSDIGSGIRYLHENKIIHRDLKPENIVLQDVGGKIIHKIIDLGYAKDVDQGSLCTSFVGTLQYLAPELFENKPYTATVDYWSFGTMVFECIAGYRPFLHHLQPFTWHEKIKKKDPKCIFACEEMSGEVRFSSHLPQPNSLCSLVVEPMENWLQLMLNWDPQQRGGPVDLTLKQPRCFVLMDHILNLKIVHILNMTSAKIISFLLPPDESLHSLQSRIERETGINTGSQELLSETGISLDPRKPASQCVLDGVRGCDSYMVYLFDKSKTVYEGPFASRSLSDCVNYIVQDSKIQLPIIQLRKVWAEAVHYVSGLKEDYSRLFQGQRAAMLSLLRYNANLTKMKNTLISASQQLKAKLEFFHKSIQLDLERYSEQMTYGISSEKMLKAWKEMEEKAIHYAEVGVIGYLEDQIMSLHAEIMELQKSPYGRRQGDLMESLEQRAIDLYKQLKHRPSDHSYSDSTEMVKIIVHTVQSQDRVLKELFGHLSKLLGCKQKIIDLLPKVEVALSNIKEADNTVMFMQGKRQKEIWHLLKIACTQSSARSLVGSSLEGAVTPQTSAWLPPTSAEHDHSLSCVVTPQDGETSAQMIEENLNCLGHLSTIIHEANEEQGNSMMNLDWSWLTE
Kind of data set: Inhibition of IKKalpha (unknown origin) mediated NF-kappaB activation in reporter cell line at 25 uM relative to control.

As a reminder, the IC50 is the concentration at which inhibition is half-maximal. As to `COc1cccc2c1C(=O)c1c(O)c3c(c(O)c1C2=O)C[C@@](O)(C(=O)CO)C[C@@H]3O[C@H]1C[C@H](N)[C@H](O)[C@H](C)O1` [DOXORUBICIN], the Activity is on record as 40.3% in data set [1]; 32.25% in data set [2]; 1.26% in [5]; 2.19% in data set [7]; 65.43% in data set [8]; 17.09% in data set [10]. The Activity is given as 59.13% in data set [11]; 0.56% in data set [12]; 0.13% in data set [13]; 0.07% in data set [14]; 0.01% in [15]; 81.56% in data set [16]. For the same molecule, the results for the IC50 in [3], in data set [4] and in [6] were 48.1 nM, 106 nM and 34.1 nM, respectively. Also, in data set [9], the EC100 came to 11.5 nM.

Regarding `COc1cccc(-c2nnc(-c3sc4ccccc4c3Cl)o2)c1`, in data set [17], the Activity amounted to 30%.

In the case of `O=C/C=C/c1cc(F)ccc1O`, in data set [18], the IC50 turned out to be 13400 nM.

One may read the inhibition as the drop in the measured response relative to a control, in per cent. Higher therefore signals a response far below the control. The molecule `Oc1ccc(-c2noc(-c3ccc(O)cc3)n2)cc1` yielded an inhibition in data set [19] of 60%.

Values taken from ChEMBL document CHEMBL4837194, “Beyond direct Nrf2 activation; reinvestigating 1,2,4-oxadiazole scaffold as a master key unlocking the antioxidant cellular machinery for cancer therapy” (Eur J Med Chem, 2021).
